Test results from patent US20210171576A1, “METHODS FOR TREATING CANCER WITH ACYLDEPSIPEPTIDE ANALOGS” (priority 2018, published 2021).
Where a SMILES comes first, the peptide text is derived from it. Bridges are numbered along the chain shown (N, C = ends). [ ]: non-standard residue; d: D form. The star is where a group is joined. Phe(3,5-F2) = N[C@@H](Cc1cc(F)cc(F)c1)C(=O)O; Heptenoyl(2E) = CCCC/C=C/C(=O)*; aThr = C[C@H](O)[C@H](N)C(=O)O; Pip = O=C(O)[C@@H]1CCCCN1

Key:
HEK293 T-REx WT cells [1] = assay: TUNEL assay, fluorescence microscopy; type: cell-based, human; settings: 10 μM, 72 hours
Method: Prior to use, the cover slips were cleaned by treatment with 1 M HCl for 2-3 days, followed by thorough rinsing with distilled water and a second treatment with 95% ethanol for 16-18 hours. The cleaned cover slips were sterilized by autoclaving and dried under UV light. To ensure proper attachment of the cells, the sterilized cover slips were coated with gelatin by application of a 0.2% solution and incubation at 37° C. for at least 2 hours. Excess gelatin solution was then removed, and the cover slips were allowed to dry in a sterile environment for 2-4 hours before use.
WT cells treated with ADEP-41 were seeded at a density of 1×10^5 cells/mL (2 mL per well) to compensate for lack of cell growth and division resulting from the ADEP treatment. […]
Cells were fixed in the presence of 4% formaldehyde at room temperature for 30-45 minutes, followed by membrane permeabilization with 0.1% Triton X-100 (in PBS from Gibco) supplemented with 0.1% sodium citrate at room temperature for 30 minutes. […] Cells were mounted onto standard glass microscope slides with DAPI Fluoromount-G (Southern Biotech) for visual examination using the Eclipse 80i fluorescence microscope (Nikon) equipped with the X-Cite Series 120Q excitation light source (Excelitas Technologies). Both light and fluorescence microscopic images were captured and analyzed using the NIS-Elements Basic Research Software (Nikon).

HEK293 T-REx WT cells [2] = assay: Western blots for HsCIpX and apoptotic protein markers; type: cell-based, human
Method: Cells were harvested by the standard trypsinization protocol and counted with a hemocytometer. Cell lysates were prepared by first re-suspending the cells in PBS at 5×10^6 cells/mL, followed by sonication. Proteins in the lysates were analyzed by Western blotting using Immobilin-P PVDF membranes (EMD Millipore). Blots were imaged and analyzed with the ChemiDoc XRS+ System (BioRad). Quantification of HsCIpP expression was performed by densitometry using the Quantity One 1D Analysis Software (BioRad). HsCIpP expression levels were corrected for sample loading errors and normalized to the expression level in HEK293 T-REx WT. Primary antibodies for HsCIpP, HsCIpX and GAPDH were purchased from Abcam. Primary antibodies for Caspase-8, Caspase-9 and PUMA were purchased from Cell Signaling Technologies. The primary antibody for Caspase-3 was purchased from R&D Systems. Primary antibodies for Mcl-1 and Bcl-2 were purchased from EMD Millipore. The primary antibody for the FLAG-tag was purchased from Sigma-Aldrich. HRP-conjugated goat anti-rabbit IgG (for HsCIpX, Caspase-8, Caspase-9 and PUMA) and HRP-conjugated goat anti-mouse IgG (for HsCIpP, Mcl-1, Bcl-2, GAPDH and FLAG-tag) were purchased from BioRad. HRP-conjugated rabbit anti-goat IgG (for Caspase-3) was purchased from Sigma-Aldrich.

HEK293 T-REx WT cells [3] = assay: 3D Structured Illumination Microscopy (3DSIM) of mitochondrial morphology; type: cell-based, human; settings: 2 μM
Method: HEK293 T-REx WT and CLPP^'1/− cells were seeded on coverslips (Electron Microscopy Sciences) pre-coated with poly-D-lysine hydrobromide (Sigma-Aldrich) in a 12-well culture plate (Falcon). Cells were grown for 24 hours to allow adhesion, followed by treatment with 2 μM ADEP-41 or DMSO in the same manner as described in previous sections, for 24 or 72 hours. At these time points, the original media was removed, and cells were incubated for 30 minutes at 37° C., 5% CO2 with 200 nM MitoTracker Red CMXRos (Molecular Probes) in Opti-MEM™ Reduced Serum Medium (Gibco). Cells were then washed once with PBS and fixed with 4% (v/v) paraformaldehyde (Electron Microscopy Sciences) in PBS for 20 minutes at room temperature.
The fixed cells were then washed twice with PBS, permeabilized with 0.2% (v/v) Triton X-100 (BioShop) in PBS for 10 minutes at room temperature and incubated with 2 μg/mL Hoechst 33342 (Molecular Probes) in PBS for 10 minutes at room temperature to counterstain nuclei. Coverslips were then washed three times with PBS+0.05% (v/v) Tween-20 and mounted on microscope glass slides (VWR) using 0.5% (w/v) propyl gallate (Sigma-Aldrich) dissolved in glycerol as the mounting medium.
3DSIM data were collected on the ELYRA PS.1 super resolution microscope (Carl Zeiss Microscopy) using a 63× (1.4 NA) Plan-Apochromatic oil immersion objective (Carl Zeiss Microscopy) and a 1.6× Optovar. […]

HeLa (regular) cells = assay: Cytotoxicity, SRB staining
Method: To assess the cytotoxicity of ADEP analogs, cells were seeded at 1×10^3 or 2×10^3 cells in 50 μL per well on sterile 96-well flat-bottom tissue culture plates (VWR). Growth media without any cells was included as a control. Cells were grown for at least 24 hours to allow proper adherence to the growth surface. Afterwards, ADEP analogs were serially diluted and introduced to the tissue cultures via fresh growth media at 50 μL per well. Inclusion of activators/DMSO brought the final DMSO concentration of the growth media up to a maximum of 0.5% (v:v). […] A total of four independent replicates were prepared for each cell line and for each growth condition used. Cells were grown in the presence of ADEP/DMSO for 72 hours.
(§1) To assess cell survival, live adherent cells were fixed with 10% (w:v) trichloroacetic acid (TCA) at 4° C. for 1-2 hours. The tissue culture plates were then rinsed with water to remove dead cells and cell debris and air-dried overnight. […] Absorbance at λ=510 nm (A510) was then measured using the EnSpire 2300 Multilabel Reader. […]
(§2) To determine the IC50 for the ADEP analogs, relative cell viability (RCV) values were calculated by normalizing the A510 readings in ADEP-containing sample to the DMSO-only control. […]

[4] = test system: HEK293 T-REx+CLPPS153A-FLAG cells; assay: Cytotoxicity, SRB staining, with or without Dox
Method: To assess the cytotoxicity of ADEP analogs, cells were seeded at 1×10^3 or 2×10^3 cells in 50 μL per well on sterile 96-well flat-bottom tissue culture plates (VWR). Growth media without any cells was included as a control. Cells were grown for at least 24 hours to allow proper adherence to the growth surface. Afterwards, ADEP analogs were serially diluted and introduced to the tissue cultures via fresh growth media at 50 μL per well. Inclusion of activators/DMSO brought the final DMSO concentration of the growth media up to a maximum of 0.5% (v:v). For experiments that involve overexpression of FLAG-tagged HsCIpP (WT or S153A mutant), Dox (Sigma-Aldrich) was also applied at 0.4 μg/mL (final concentration) as needed. A total of four independent replicates were prepared for each cell line and for each growth condition used. Cells were grown in the presence of ADEP/DMSO for 72 hours.
as §1, §2

CCCC/C=C/C(=O)N[C@@H](Cc1cc(F)cc(F)c1)C(=O)N[C@@H]1C(=O)N2CCC[C@H]2C(=O)N2CCCC[C@H]2C(=O)N[C@@H](C)C(=O)N2CCC[C@H]2C(=O)O[C@H]1C [ADEP-41] ({Heptenoyl(2E)}-[Phe(3,5-F2)][aThr]P[Pip]AP; ester 2-C)
TUNEL-positive cells relative to DMSO-treated WT cells (HEK293 T-REx WT cells [1]): about 20 times | activation-specific cleavage of Caspase-8 (HEK293 T-REx WT cells [2]; 10 μM, 72 hours): no activation-specific cleavage was observed | activation-specific cleavage of Caspase-9 and Caspase-3 (HEK293 T-REx WT cells [2]; 10 μM, 72 hours): activation-specific cleavage was detected | level of anti-apoptotic Bcl-2 protein (HEK293 T-REx WT cells [2]; 10 μM, 72 hours): no change | HsCIpX level (HEK293 T-REx WT cells [2]; 20 μM 24 hours or 10 μM 72 hours): no longer detected | activation-specific cleavage of Caspase-8, Caspase-9 or Caspase-3 (HEK293 T-REx WT cells [2]; 20 μM, 24 hours): no activation-specific cleavage was observed | anti-apoptotic Mcl-1 protein (HEK293 T-REx WT cells [2]; 20 μM, 24 hours): degraded | pro-apoptotic PUMA protein (HEK293 T-REx WT cells [2]; 20 μM, 24 hours): significantly upregulated | mitochondrial fragmentation (HEK293 T-REx WT cells [3]; 24 hours): clear signs of mitochondrial fragmentation | mitochondrial fragmentation (HEK293 T-REx WT cells [3]; 72 hours): very significant | IC50 compared across cell lines (HeLa (regular) cells): similar | change in IC50 ([4]; 0.4 μg/mL Dox, inactive HsCIpP(S153A) overexpression): no change in IC50 | sensitivity relative to WT ([4]; without Dox): equally sensitive
